Measurements from patent publication US20250281620A1, “HYDROXYBISPHOSPHONIC DERIVATIVES OF MELOXICAM FOR THE TREATMENT OF INFLAMMATORY JOINT DISEASES” (Atlanthéra, priority 2021, published 2025).

What was measured:
monoarthritis in rats = experiment: mBSA-induced monoarthritis model in rats (knee swelling, limping); type: in vivo, rat; details: oral daily meloxicam 0.2 mg/kg
Method: Monoarthritis was induced in rats (male, Sprague Dawley strain, aged 14 weeks) by intra-articular injection (knee) of 100 μg of mBSA after two preliminary sensitizers (2 and 3 weeks before the induction) by subcutaneous injection of a CFA emulsion containing 500 μg of mBSA. The distribution was carried out on D2, 24 h after induction, as a function of the intensity of the swelling in order to obtain homogeneity between the groups. […] The HBP-meloxicam molecules were solubilized in 5% glucose. In control, the pathological animals (mBSA) received a single injection (caudal vein, 5 min infusion, volume of 10 mL/kg) of 5% glucose.
In reference treatment, the animals received an oral daily administration of meloxicam for 28 days at the NOEL dose of 0.2 mg/kg-0.57 μmol/kg, i.e., a cumulative dose of 15.96 μmol/kg.
The evolution of arthritis was monitored by measuring the swelling of the pathological knee as well as the animal's limping.

Solubility in water = type: physicochemical; details: general statement, no method described

solubility in water (Solubility in water): very poorly soluble
Compound: Cc1cnc(NC(=O)C2=C(O)c3ccccc3S(=O)(=O)N2C)s1 [meloxicam]
end of limping after treatment (monoarthritis in rats): 9 days
